# Source: ChEMBL document CHEMBL5346924, “Optically activated MEK1/2 inhibitors (Opti-MEKi) as potential antimelanoma agents” (Eur J Med Chem, 2023)
# Calls of active or inactive are those of the source. No cut-off for these calls is given here.
# What was measured:
# [1] = test system: HCT-116; experiment: Antiproliferative activity against human HCT-116 cells harboring KRAS G13D mutant assessed as cell growth inhibition incubated for 72 hrs in the absence of UV irradiation by CellTiter-Glo luminescent assay; format: functional; conditions: HCT-116, light or radiation study
# [2] = target: Dual specificity mitogen-activated protein kinase kinase 1 (Homo sapiens, UniProt Q02750); experiment: Inhibition of MEK1 (unknown origin) incubated for 1 hrs in the presence of ATP by FRET-based Z'-Lyte assay
# [3] = target: Serine/threonine-protein kinase B-raf (Homo sapiens) (UniProt P15056); experiment: Inhibition of recombinant human BRAF at 1 uM
# [4] = Selectivity ratio of GI50 for antiproliferative activity against human A-375 cells harboring BRAF V600E mutant in the absence of UV irradiation to GI50 for antiproliferative activity against human A-375 cells harboring BRAF V600E mutant in the presence of UV irradiation for 5 mins; format: functional
# [5] = target: T1, Mitogen-activated protein kinase; ERK1/ERK2 (Homo sapiens, UniProt P27361+P28482); experiment: Inhibition of ERK1/2 phosphorylation in human A-375 cells preincubated with compound for 1 hrs followed by 365 nm light irradiation for 5 mins and measured after 1 hrs compound treatment by Western blot analysis; format: cell-based; conditions: dose 1-100 nM, time 125.0 min
# [6] = target: Mitogen-activated protein kinase 3 (Homo sapiens) (UniProt P27361); experiment: Inhibition of recombinant human ERK1 at 1 uM
# [7] = test system: Serine/threonine-protein kinase B-raf (Homo sapiens), P15056 [V600E]; experiment: Inhibition of recombinant human BRAF V600E mutant at 1 uM
# [8] = test system: A-375; experiment: Antiproliferative activity against CM-Dil labelled human A-375 cells xenografted in Zebra fish AB at 45 pM administered from 3 days post fertilization and measured at day 5 post fertilization in the absence of irradiation by fluorescence based analysis; format: functional, cell-based; conditions: time 48.0 hrs
# [9] = test system: A549; experiment: Antiproliferative activity against human A549 cells harboring KRas […] mutant assessed as cell growth inhibition preincubated with compound for 1 hrs followed by UV irradiation for 5 mins and measured 72 hrs post compound treatment by CellTiter-Glo luminescent assay; format: functional; conditions: A549, light or radiation study
# [10] = target: T1, Mitogen-activated protein kinase; ERK1/ERK2; experiment: Inhibition of ERK1/2 phosphorylation in human A-375 cells upto 10 uM incubated for 1 hrs in the absence of UV irradiation by Western blot analysis; format: cell-based
# [11] = test system: A-375; experiment: Inhibition of colony formation in human A-375 cells preincubated with compound for 1 hrs followed by 365 nm light irradiation for 5 mins and measured for 10 days by crystal violet staining based analysis; format: functional, cell-based; conditions: dose 10-300 nM, time 14465.0 min
# T1 sequence (P27361 whole entry, looked up): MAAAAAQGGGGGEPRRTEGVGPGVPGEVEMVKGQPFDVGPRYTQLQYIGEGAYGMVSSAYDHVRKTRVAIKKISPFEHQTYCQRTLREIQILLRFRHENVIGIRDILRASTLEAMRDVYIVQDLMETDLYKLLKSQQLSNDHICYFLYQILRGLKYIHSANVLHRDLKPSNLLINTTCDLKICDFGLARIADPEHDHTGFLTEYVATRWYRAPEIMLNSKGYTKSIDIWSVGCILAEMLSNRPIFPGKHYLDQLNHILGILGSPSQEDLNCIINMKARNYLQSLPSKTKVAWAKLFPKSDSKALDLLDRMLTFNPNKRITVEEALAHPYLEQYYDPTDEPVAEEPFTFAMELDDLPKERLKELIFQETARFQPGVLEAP
# T1 sequence (P28482 whole entry, looked up): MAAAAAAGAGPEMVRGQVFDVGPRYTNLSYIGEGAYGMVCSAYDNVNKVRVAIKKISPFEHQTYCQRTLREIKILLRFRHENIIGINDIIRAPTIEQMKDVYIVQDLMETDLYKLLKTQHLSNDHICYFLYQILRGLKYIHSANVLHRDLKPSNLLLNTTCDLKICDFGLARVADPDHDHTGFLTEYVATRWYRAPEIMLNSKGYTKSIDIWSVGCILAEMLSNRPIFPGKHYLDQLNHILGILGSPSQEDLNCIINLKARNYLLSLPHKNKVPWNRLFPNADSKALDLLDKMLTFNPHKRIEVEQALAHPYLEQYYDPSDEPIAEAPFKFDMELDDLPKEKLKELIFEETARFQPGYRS
# Sequence of Serine/threonine-protein kinase B-raf (Homo sapiens), P15056 [V600E] (P15056 whole entry V600E): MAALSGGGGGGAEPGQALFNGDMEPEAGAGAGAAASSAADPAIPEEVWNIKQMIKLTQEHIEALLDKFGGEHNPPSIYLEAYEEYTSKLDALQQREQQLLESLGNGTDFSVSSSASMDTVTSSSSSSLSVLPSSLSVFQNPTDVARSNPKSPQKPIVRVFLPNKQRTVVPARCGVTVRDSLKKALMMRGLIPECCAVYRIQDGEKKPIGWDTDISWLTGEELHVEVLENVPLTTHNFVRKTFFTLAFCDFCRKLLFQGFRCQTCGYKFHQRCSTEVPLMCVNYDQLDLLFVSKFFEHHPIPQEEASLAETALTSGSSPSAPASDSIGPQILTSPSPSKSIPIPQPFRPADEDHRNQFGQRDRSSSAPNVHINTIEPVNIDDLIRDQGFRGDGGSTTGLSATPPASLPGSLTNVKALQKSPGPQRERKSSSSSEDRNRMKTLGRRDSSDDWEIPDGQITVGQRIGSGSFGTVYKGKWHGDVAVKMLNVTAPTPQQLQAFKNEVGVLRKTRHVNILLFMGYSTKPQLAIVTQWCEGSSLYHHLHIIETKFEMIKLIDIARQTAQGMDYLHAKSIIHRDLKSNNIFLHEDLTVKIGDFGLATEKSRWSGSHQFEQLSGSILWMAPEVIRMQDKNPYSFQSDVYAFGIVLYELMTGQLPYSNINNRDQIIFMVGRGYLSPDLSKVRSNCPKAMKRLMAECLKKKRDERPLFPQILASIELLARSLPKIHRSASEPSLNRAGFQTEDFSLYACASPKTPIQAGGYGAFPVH
# Sequence of Serine/threonine-protein kinase B-raf (Homo sapiens) (P15056 whole entry): as the sequence (P15056 whole entry V600E) above, with E600V counted along it
# Sequence of Mitogen-activated protein kinase 3 (Homo sapiens) (P27361 whole entry): as the sequence (P27361 whole entry, looked up) above
# Sequence of Dual specificity mitogen-activated protein kinase kinase 1 (Q02750 whole entry): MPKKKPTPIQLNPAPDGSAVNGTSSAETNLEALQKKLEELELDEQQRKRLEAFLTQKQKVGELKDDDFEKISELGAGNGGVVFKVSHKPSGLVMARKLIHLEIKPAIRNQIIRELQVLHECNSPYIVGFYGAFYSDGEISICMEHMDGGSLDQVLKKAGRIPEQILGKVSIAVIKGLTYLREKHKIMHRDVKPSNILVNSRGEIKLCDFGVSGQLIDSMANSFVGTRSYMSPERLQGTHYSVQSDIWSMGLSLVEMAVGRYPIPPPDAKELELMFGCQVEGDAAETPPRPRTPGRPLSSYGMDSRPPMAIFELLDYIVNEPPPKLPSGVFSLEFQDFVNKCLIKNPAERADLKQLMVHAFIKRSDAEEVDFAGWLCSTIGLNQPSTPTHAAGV
smiles,measurement,setting,value
COc1cc(C(C)O/C(=N\OC[C@H](O)CO)c2ccc(F)c(F)c2Nc2ccc(I)cc2F)c([N+](=O)[O-])cc1OC (stereo partly specified),GI50,[1],> 10 µM
same,IC50,[2],> 30 µM
same,inhibition,[3],inactive
same,RatioGI50,[4],>5000
same,inhibition,[5],Dose-Dependent Effect
same,inhibition,[6],inactive
same,inhibition,[7],inactive
same,Activity,[8],inactive
same,GI50,[9],0.0278 µM
same,inhibition,[10],inactive
same,inhibition,[11],Active
